The record followed here is ChEMBL document CHEMBL5625247, “Tetrahydro-β-carboline derivatives as potent histone deacetylase 6 inhibitors with broad-spectrum antiproliferative activity” (Eur J Med Chem, 2023).

Experiment [1] has as its target T1, Protein deacetylase HDAC6 (Homo sapiens, UniProt Q9UBN7).
T1 sequence (Q9UBN7 whole entry): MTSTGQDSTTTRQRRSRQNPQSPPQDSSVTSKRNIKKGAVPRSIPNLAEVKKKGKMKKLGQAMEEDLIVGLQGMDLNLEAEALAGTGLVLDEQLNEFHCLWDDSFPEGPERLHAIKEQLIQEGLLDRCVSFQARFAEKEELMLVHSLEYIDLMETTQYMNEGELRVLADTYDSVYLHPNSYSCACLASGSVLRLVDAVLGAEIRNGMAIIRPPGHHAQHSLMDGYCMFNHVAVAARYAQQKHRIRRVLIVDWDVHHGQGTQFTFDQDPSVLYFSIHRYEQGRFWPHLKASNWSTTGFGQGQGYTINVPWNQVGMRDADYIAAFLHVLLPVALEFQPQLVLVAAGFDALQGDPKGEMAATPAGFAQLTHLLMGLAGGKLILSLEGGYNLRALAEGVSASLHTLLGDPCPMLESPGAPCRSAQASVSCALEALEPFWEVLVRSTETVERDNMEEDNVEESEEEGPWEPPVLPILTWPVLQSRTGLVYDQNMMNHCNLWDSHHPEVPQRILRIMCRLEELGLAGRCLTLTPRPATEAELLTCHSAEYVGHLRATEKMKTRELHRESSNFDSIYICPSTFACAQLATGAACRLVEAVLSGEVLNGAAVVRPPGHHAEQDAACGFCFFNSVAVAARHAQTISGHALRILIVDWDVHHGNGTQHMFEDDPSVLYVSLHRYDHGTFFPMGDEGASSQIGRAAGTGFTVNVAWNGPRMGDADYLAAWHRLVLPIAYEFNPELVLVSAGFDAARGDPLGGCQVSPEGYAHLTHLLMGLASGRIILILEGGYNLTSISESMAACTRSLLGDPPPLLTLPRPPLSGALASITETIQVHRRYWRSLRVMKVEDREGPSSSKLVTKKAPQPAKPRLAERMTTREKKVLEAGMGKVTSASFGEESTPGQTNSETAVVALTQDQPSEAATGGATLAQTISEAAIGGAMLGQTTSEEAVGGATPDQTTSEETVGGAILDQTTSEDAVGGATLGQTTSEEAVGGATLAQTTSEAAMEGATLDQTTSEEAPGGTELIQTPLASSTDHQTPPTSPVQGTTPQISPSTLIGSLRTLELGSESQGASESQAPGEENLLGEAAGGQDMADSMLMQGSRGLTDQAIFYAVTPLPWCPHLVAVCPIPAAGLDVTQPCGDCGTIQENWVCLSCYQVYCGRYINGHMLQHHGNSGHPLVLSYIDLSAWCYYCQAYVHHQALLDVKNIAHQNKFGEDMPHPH
The experiment is described as follows: Inhibition of HDAC6 (unknown origin) expressed in baculovirus infected in Sf9 cells using RHKKAc as substrate preincubated for 5 to 10 mins followed by substrate addition measured after 2 hrs by fluorescence based assay.

Experiment [2] concerns the target T2, Histone deacetylase 1 (Homo sapiens, UniProt Q13547). Nature of the experiment: Inhibition of HDAC1 (unknown origin) expressed in baculovirus infected in Sf9 cells using RHKKAc as substrate preincubated for 5 to 10 mins followed by substrate addition measured after 2 hrs by fluorescence based assay.
The target in experiment [3] is T2, Histone deacetylase 1. Nature of the experiment: Inhibition of HDAC1 (unknown origin) expressed in baculovirus infected in Sf9 cells using RHKKAc as substrate at 500 nM preincubated for 5 to 10 mins followed by substrate addition measured after 2 hrs by fluorescence based assay relative to control. The conditions noted are these: time 5-130 min.
Experiment [4] addresses T3, Protein deacetylase HDAC6 (Homo sapiens) (UniProt Q9UBN7).
T3 sequence (whole entry): T1 sequence (Q9UBN7 whole entry)
Nature of the experiment: Inhibition of HDAC6 (unknown origin) expressed in baculovirus infected in Sf9 cells using RHKKAc as substrate at 500 nM preincubated for 5 to 10 mins followed by substrate addition measured after 2 hrs by fluorescence based assay relative to control. The conditions noted are these: time 5-130 min.

Experiment [5] has as its system RPMI-8226. Nature of the experiment: cells. It is filed as functional, cell-based. The note with it: Homo sapiens, RPMI-8226, 72 h.

SMILES strings stand for the structures.

T2 sequence (Q13547 whole entry): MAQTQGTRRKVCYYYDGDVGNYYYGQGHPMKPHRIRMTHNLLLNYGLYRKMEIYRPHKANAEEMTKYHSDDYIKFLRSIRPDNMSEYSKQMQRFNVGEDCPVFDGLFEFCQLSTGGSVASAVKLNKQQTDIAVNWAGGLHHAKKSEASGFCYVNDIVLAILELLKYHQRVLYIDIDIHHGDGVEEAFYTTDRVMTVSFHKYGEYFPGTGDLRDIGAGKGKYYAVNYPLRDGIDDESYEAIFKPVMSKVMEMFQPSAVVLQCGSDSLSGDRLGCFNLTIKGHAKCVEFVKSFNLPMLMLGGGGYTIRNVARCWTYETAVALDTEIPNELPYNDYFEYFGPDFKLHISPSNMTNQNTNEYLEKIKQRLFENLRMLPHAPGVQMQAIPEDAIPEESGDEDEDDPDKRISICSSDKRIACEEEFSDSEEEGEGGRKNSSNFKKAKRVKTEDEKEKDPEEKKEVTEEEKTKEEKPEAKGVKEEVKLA

By IC50 is commonly meant the concentration at which inhibition is half-maximal. High values mean weaker potency, low ones greater potency. Turning to `O=C(NO)c1ccc(CNC(=O)[C@H]2Cc3c([nH]c4ccccc34)[C@H](C3CC3)N2Cc2ccc(Cl)cc2)cc1`, the results for the IC50 in experiment [1] and in experiment [2] were 10.5 nM and 184 nM, respectively.

A word on the inhibition: it is the share of the control response that was lost under treatment. High values mean a response far below the control, low ones a response near the control. In turn, `COc1ccc(CN2[C@H](C(=O)NCc3ccc(C(=O)NO)cc3)Cc3c([nH]c4ccccc34)[C@H]2C2CC2)cc1` displayed an inhibition in experiment [3] of 43.2%. For the same molecule, the IC50 in experiment [2] worked out at 1680 nM.

Take `COc1ccc([C@@H]2N[C@@H](C(=O)NCc3ccc(C(=O)NO)cc3)Cc3c2[nH]c2ccccc32)cc1`: the inhibition in experiment [4] worked out at 96.4%; in experiment [3] it was 90.6%. Also, the IC50 in experiment [1] turned out to be 2.34 nM; in experiment [2] it was 51.5 nM.

On to `COc1ccc([C@H]2N[C@H](C(=O)NCc3ccc(C(=O)NO)cc3)Cc3c2[nH]c2ccccc32)cc1`, for which the inhibition in experiment [4] was 98.7%; in experiment [3], 71.4%. Also, the results for the half-inhibitory concentration (IC50) in experiment [1] and in experiment [2] were 3.75 nM and 494 nM, respectively.

Turning to `O=C(NO)c1ccc(CNC(=O)[C@H]2Cc3c([nH]c4ccccc34)[C@H](C3CC3)N2)cc1`, the IC50 in experiment [1] amounted to 4.36 nM; in experiment [2] it was 38 nM; in experiment [5], 830 nM.

For the molecule `COc1ccc([C@@H]2N[C@@H](C(=O)NCc3ccc(C(=O)NO)cc3)Cc3c2[nH]c2ccccc32)cc1OC`, the IC50 in experiment [2] was 78 nM; in experiment [5] it was 900 nM.

As for `COc1ccc([C@H]2N[C@@H](C(=O)NCc3ccc(C(=O)NO)cc3)Cc3c2[nH]c2ccccc32)cc1`, the inhibition in experiment [4] turned out to be 82.3%; in experiment [3], 35.8%.

As for `O=C(NO)c1ccc(CNC(=O)[C@H]2Cc3c([nH]c4ccccc34)[C@H](c3ccccc3)N2)cc1`, the IC50 in experiment [1] was 2.1 nM; in experiment [2], 42.3 nM; in experiment [5], 580 nM.

On to `O=C(NO)c1ccc(CNC(=O)[C@H]2Cc3c([nH]c4ccccc34)[C@H](c3ccc(Cl)cc3)N2CC2CC2)cc1`, for which, in experiment [2], the IC50 amounted to 106 nM.

On to `COc1ccc(C[C@H]2N[C@H](C(=O)NCc3ccc(C(=O)NO)cc3)Cc3c2[nH]c2ccccc32)cc1`, for which the inhibition in experiment [4] stood at 81.5%; in experiment [3] it was 38.1%.

Turning to `O=C(NO)c1ccc(CNC(=O)[C@H]2Cc3c([nH]c4ccccc34)[C@H](C3CCCC3)N2)cc1`, the IC50 worked out at 2.53 nM in experiment [1], 40.5 nM in experiment [2] and 680 nM in experiment [5].

As to `COc1ccc(CN2[C@@H](C(=O)NCc3ccc(C(=O)NO)cc3)Cc3c([nH]c4ccccc34)[C@@H]2C)cc1`, the IC50 in experiment [1] worked out at 8.84 nM; in experiment [2] it was 125 nM.

For `COc1ccc(CN2Cc3[nH]c4ccccc4c3C[C@@H]2C(=O)NCc2ccc(C(=O)NO)cc2)cc1`, the inhibition in experiment [4] came out at 83.4%; in experiment [3], 32%.

With `COc1ccc([C@@H]2N[C@H](C(=O)NCc3ccc(C(=O)NO)cc3)Cc3c2[nH]c2ccccc32)cc1`, the inhibition in experiment [4] came to 87.1%; in experiment [3], 30.6%.
